Assay results taken from US20260240851A1, “Treatment of Parkinson's Disease in a Patient Using a Glucocerebrosidase Activator” (BIAL - R&D Investments, S.A., priority 2023, published 2026).
Where two headings read alike, the source gives them in different places. Values belong to the compound of their own block, whether it stands above or below them.

What was measured:
[1] = BIA 28-6156-105: safety and tolerability; details: 400 mg moxifloxacin
[2] = BIA 28-6156-105: continuous cardiac monitoring, concentration-QTc analysis; details: 400 mg moxifloxacin, positive control
[3] = BIA 28-6156-110 DDI, rosuvastatin portion; assay type: in vivo, human
Description: In Cohort 1, a single oral dose of 10 mg rosuvastatin was administered alone on Day 1. No drug was administered on Day 2. From Day 3 to Day 8, a single daily dose of 60 mg Compound A was administered.

[4] = Parkinson's patients with a GBA-1 mutation; Peterschmitt et al., 2021; cited from earlier work
clinical [5] = details: both, human, in vivo
Description: (§1) This was a Phase 1, non-randomized, open-label, 2-cohort, cross-over, DDI study in healthy male and female subjects.
(§2) In Cohort 1, a single oral dose 100 mg/25 mg levodopa-carbidopa (Sinemet®) IR was administered alone on Day 1.

[6] = both, human, in vivo
clinical [7] = details: both, human, in vivo, geometric mean t1/2
[8] = both, human, in vivo; remark: listed apart in the source
Description: as §1, §2

clinical [9] = details: both, human, in vivo; remark: listed apart in the source
Description: as §1
(§3) In Cohort 2, a single oral dose 100 mg/25 mg levodopa-benserazide (Madopar®) IR was administered alone on Day 1.

[10] = both, human, in vivo; remark: listed apart in the source
Description: as §1, §3

[11] = BIA 28-6156-107 DDI: effect of single-dose Compound A on single-dose PK of carbidopa-levodopa; details: both, human, in vivo, oral; for Tmax: Median Tmax, carbidopa
[12] = BIA 28-6156-110 DDI, metformin portion; assay type: in vivo, human
Description: In Cohort 2, a single oral dose 500 mg metformin was administered alone on Day 1. From Day 2 to Day 7, a single daily dose of 60 mg Compound A was administered.

[13] = 10 mg rosuvastatin + Compound A (60 mg daily) vs rosuvastatin alone
[14] = 500 mg metformin + Compound A (60 mg daily) vs metformin alone

Compound: COc1c(N2C[C@@H]3CCCN[C@@H]3C2)c(F)cc2c(=O)c(C(=O)O)cn(C3CC3)c12 [Moxifloxacin, moxifloxacin, reference compound]
Grade 3 (severe) TEAE considered related [1]: hypersensitivity | effect on ΔΔQTcF (concentration-QTc analysis) [2]: above 5 msec

Compound: CC(C)(NC(=O)O[C@@H]1CN2CCC1CC2)c1csc(-c2ccc(F)cc2)n1 [venglustat]
impact on slowing the progression of the condition [4]: no impact on slowing the progression of the condition

Compound: N[C@@H](Cc1ccc(O)c(O)c1)C(=O)O [Levodopa, levodopa]
half-life (clinical [5]): 1.69 h | AUC0-inf ratio of geometric least squares means (point estimate) [6]: 1.035 | AUC0-last ratio of geometric least squares means (point estimate) [6]: 1.048 | Cmax ratio of geometric least squares means (point estimate) [6]: 1.061 | Median Tmax [6]: 0.5 h | half-life (clinical [7]): 1.7 h | AUC(0-t) [8]: 1.534 µg·h/mL | Tmax [8]: 1.00 h | Tmax (clinical [9]): 0.77 h | AUC(0-t) (clinical [9]; AUC0-t): 1.94 µg·h/mL | t1/2 [10]: 2.26 h

Compound: CN(C)C(=N)N=C(N)N [metformin]
AUC0-inf ratio of geometric least squares mean, estimate [12, 14]: 0.940 | AUC0-t ratio of geometric least squares mean, estimate [12, 14]: 0.938 | Cmax ratio of geometric least squares mean, estimate [12, 14]: 0.950 | effect of multiple oral doses of Compound A on metformin PK ([12]; single oral dose of metformin): no effect

Next, values leading:

AUC0-inf ratio of geometric least squares mean, estimate [3, 13]: 3.041 | AUC0-t ratio of geometric least squares mean, estimate [3, 13]: 3.437 | Cmax ratio of geometric least squares mean, estimate [3, 13]: 3.467 | increase of rosuvastatin PK ([3]; with Compound A vs alone): about 3 fold | increased maximal exposure to rosuvastatin, Cmax ([3]; with Compound A vs alone): 347% | increased systemic exposure to rosuvastatin, AUC0-inf ([3]; with Compound A vs alone): 304% | increased systemic exposure to rosuvastatin, AUC0-t ([3]; with Compound A vs alone): 344%
Compound: CC(C)c1nc(N(C)S(C)(=O)=O)nc(-c2ccc(F)cc2)c1/C=C/[C@@H](O)C[C@@H](O)CC(=O)O [rosuvastatin]

AUC0-last ratio of geometric least squares means (point estimate) [6]: 0.909 | Cmax ratio of geometric least squares means (point estimate) [6]: 1.031 | decrease of systemic exposure [6]: approximately 9% | increase of maximal exposure [6]: approximately 3% | Tmax ([11]; carbidopa-levodopa alone): 2.5 h | Tmax ([11]; coadministered with Compound A): 2 h | half-life ([11]; geometric mean t1/2, carbidopa, both treatment conditions): 2 to 2.3 h
Compound: C[C@@](Cc1ccc(O)c(O)c1)(NN)C(=O)O [carbidopa]
